Reference: US11446287B2, “Compounds and methods for EP300 or CBP modulation and indications therefor” (Opna Immuno-Oncology SA, priority 2019, dated 2022)

Target: T1, Recombinant human CBP containing the bromodomain (CBP-BD (1043-1159)) (Homo sapiens, UniProt Q92793)
T1 construct: Recombinant human CBP bromodomain (CBP-BD (1043-1159)); made in house; host or cells: E. coli BL21-CodonPlus (DE3), modified pET vector
Test: CBP Alphascreen binding assay
Conditions: read-out: CREBBP (CBP) IC50
Method: CBP Alphascreen Binding Assay
Binding of compounds of Formula (I) with CBP was assessed using Alphascreen™ binding assay. The inhibition of the interaction between the CBP bromodomain and its acetylated target protein was measured quantitatively using recombinant CBP, an acetylated Histone 3 peptide and AlphaScreen™ technology. In absence of inhibition of the CBP protein bound to AlphaScreen™ nickel chelate acceptor beads can interact with the acetylated Histone 3 peptide which was immobilized by the AlphaScreen™ Streptavidin coated beads. This interaction brings donor and acceptor beads in proximity. The close proximity allows the singlet oxygen produced by laser excitation of the donor beads to reach the acceptor beads and generate a luminescence signal. CBP inhibitors result in a decrease in the proximity signal through an inhibition of the CBP—acetylated peptide interaction.
Recombinant human CBP containing the bromodomain (CBP-BD (1043-1159)) was prepared and purified as described in protein expression and purification session. The peptide was human Histone H345-64K56Ac-Biotin (Anaspec CA, USA).
Protocol for CBP assay: All components are prepared in buffer composed of 50 mM HEPES pH 7.5, 50 mM NaCl, 0.01% BSA, 0.01% Triton X-100, 2 mM DTT. Test compounds and DMSO vehicle are diluted 1:50 in buffer and a 4 μL volume was transferred to an Alphaplate. 5.5 μL of CBP protein and 5.5 μL of peptide are added to wells containing 4 μL of various concentrations of test compounds of Formula (I) or DMSO vehicle in an Alphaplate (PerkinElmer GA, USA) and incubated for 1 hour at room temperature. 5 μL donor and acceptor bead mixture was then added with final concentrations of 7.5 μg/ml. 60 minutes after bead addition, Alpha signal was read on the Envision spectrometer (λEx 680 nm, λEm 520-620 nm). Final concentrations of bromodomain proteins and peptide are as shown below.
All data were normalized to the mean of 16 high and 16 low control wells on each plate. A four parameter curve fit of the following formula was then applied: Y=A+((B−A)/(1+((C/x)^D))) Where ‘A’ is the minimum, ‘B’ is the maximum, ‘C’ is the IC50 and ‘D’ is the Hill slope. Protein Expression and Purification
Recombinant human CBP bromodomain (CBP-BD (1043-1159)) was expressed in E. coli cells (in a modified pET vector) with an N-terminal six-His tag and purified using a combination of both IMAC (Ni-affinity) and size exclusion chromatography steps.
Recombinant CBP protein was expressed using the E. coli strain BL21-CodonPlus (DE3) (Agilent Technologies CA, USA). Cells were grown in Terrific Broth (TB) media to an OD600 of 0.92 at 37° C. at which temperature was reduced to 20° C., protein was induced with 1.0 mM isopropyl-β-D-thiogalactopyranoside (“IPTG”) for 20 hours and harvested by centrifugation at 8500×g for 20 minutes. Cells were re-suspended in 0.1M K2PO4 pH 8.0, 250 mM NaCl, 10% Glycerol, 0.75% NP-40, 25 mM Imidazole, with 0.2 mg/ml Lysozyme, 0.2 mM phenylmethanesulfonyl fluoride (“PMSF”), […] (“BME”), 25 μg/ml DNase I, incubated on ice for 30 minutes and lysed with a cell disruptor (MicroFluidics MA, USA). The lysate was clarified by centrifugation at 20,000×g for 1 hour. The protein was captured with Ni-NTA resin (Life Technologies, USA). Contaminating proteins were washed off with 40 mM HEPES pH 7.5, 500 mM NaCl, 5% Glycerol, 5 mM Imidazole, and 5 mM BME. Following 3× wash steps, protein was eluted using 400 mM Imidazole in 40 mM HEPES pH 7.5, 400 mM NaCl, and 5 mM BME. The protein was further purified using a size exclusion column (26/600 Superdex 200, GE Biosciences NJ, USA) in 40 mM HEPES pH 7.5, 250 mM NaCl, 5 mM BME. The protein was aliquoted and flash-frozen in liquid Nitrogen.

T1 sequence (Q92793 1081-1197): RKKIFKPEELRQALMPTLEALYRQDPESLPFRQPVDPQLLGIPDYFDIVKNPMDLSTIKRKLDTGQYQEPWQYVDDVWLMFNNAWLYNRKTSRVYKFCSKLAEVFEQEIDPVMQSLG

Structure (SMILES)	IC50
Cc1noc(C)c1-c1cnc2c(c1)c(-c1ccc(C(=O)O)cc1OCc1ccccc1)cn2[C@@H](C)c1ccccn1 [P-0139, (S)-3-(benzyloxy)-4-(5-(3,5-dimethylisoxazol-4-yl)-1-(1-(pyridin-2-yl)ethyl)-1H-pyrrolo[2,3-b]pyridin-3-yl)benzoic acid]	0.0001 to 1 µM
COc1ccc(C(=O)O)cc1-c1cn(C(C)c2ccccc2)c2cc(-c3c(C)noc3C)cnc12 (centres unmarked) [P-0140, 3-(6-(3,5-dimethylisoxazol-4-yl)-1-(1-phenylethyl)-1H-pyrrolo[3,2-b]pyridin-3-yl)-4-methoxybenzoic acid]	1 to 8 µM
Cc1noc(C)c1-c1cnc2c(-c3cc(C(=O)O)ccc3Cl)cn(C(C)c3ccccc3)c2c1 (centres unmarked) [P-0141, 4-chloro-3-(6-(3,5-dimethylisoxazol-4-yl)-1-(1-phenylethyl)-1H-pyrrolo[3,2-b]pyridin-3-yl)benzoic acid]	0.0001 to 1 µM
COc1cc(C(=O)O)ccc1-c1cn([C@@H](C)c2ccccn2)c2cc(-c3c(C)noc3C)cnc12 [P-0142, (S)-4-(6-(3,5-dimethylisoxazol-4-yl)-1-(1-(pyridin-2-yl)ethyl)-1H-pyrrolo[3,2-b]pyridin-3-yl)-3-methoxybenzoic acid]	0.0001 to 1 µM
Cc1noc(C)c1-c1cnc2c(CC3CCC3)cn(-c3ccc(O)nc3)c2c1 [P-0143, 5-(3-(cyclobutylmethyl)-6-(3,5-dimethylisoxazol-4-yl)-1H-pyrrolo[3,2-b]pyridin-1-yl)pyridin-2-ol]	1 to 8 µM
COc1cc(C(=O)O)cc(O)c1-c1cn([C@@H](C)c2ccccn2)c2ncc(-c3c(C)noc3C)cc12 [P-0144, (S)-4-(5-(3,5-dimethylisoxazol-4-yl)-1-(1-(pyridin-2-yl)ethyl)-1H-pyrrolo[2,3-b]pyridin-3-yl)-3-hydroxy-5-methoxybenzoic acid]	0.0001 to 1 µM
Cc1noc(C)c1-c1cnc2c(c1)c(-c1ccnc(O)c1)cn2[C@@H](C)c1ccccn1 [P-0145, (S)-4-(5-(3,5-dimethylisoxazol-4-yl)-1-(1-(pyridin-2-yl)ethyl)-1H-pyrrolo[2,3-b]pyridin-3-yl)pyridin-2-ol]	8 to 1000 µM
COc1cc(C(=O)O)cc(OC)c1-c1cn([C@@H](C)c2ccccn2)c2cc(-c3c(C)noc3C)cnc12 [P-0146, (S)-4-(6-(3,5-dimethylisoxazol-4-yl)-1-(1-(pyridin-2-yl)ethyl)-1H-pyrrolo[3,2-b]pyridin-3-yl)-3,5-dimethoxybenzoic acid]	1 to 8 µM
CCOc1cc(C(=O)O)cc(OCC)c1-c1cn([C@@H](C)c2ccccn2)c2ncc(-c3c(C)noc3C)cc12 [P-0147, (S)-4-(5-(3,5-dimethylisoxazol-4-yl)-1-(1-(pyridin-2-yl)ethyl)-1H-pyrrolo[2,3-b]pyridin-3-yl)-3,5-diethoxybenzoic acid]	0.0001 to 1 µM
CC[C@@H](c1ccccn1)n1cc(-c2cc(C(=O)O)ccc2Cl)c2ncc(-c3c(C)noc3C)cc21 [P-0148, (S)-4-chloro-3-(6-(3,5-dimethylisoxazol-4-yl)-1-(1-(pyridin-2-yl)propyl)-1H-pyrrolo[3,2-b]pyridin-3-yl)benzoic acid]	0.0001 to 1 µM
Cc1noc(C)c1-c1cc2c(cn1)c(CC1CCC1)cn2-c1c(Cl)cc(C(=O)O)cc1Cl [P-0149, 3,5-dichloro-4-(3-(cyclobutylmethyl)-6-(3,5-dimethylisoxazol-4-yl)-1H-pyrrolo[3,2-c]pyridin-1-yl)benzoic acid]	0.0001 to 1 µM
Cc1noc(C)c1-c1cnc2c(-c3ccccc3)cn(-c3c(Cl)cc(C(=O)O)cc3Cl)c2c1 [P-0150, 3,5-dichloro-4-(6-(3,5-dimethylisoxazol-4-yl)-3-phenyl-1H-pyrrolo[3,2-b]pyridin-1-yl)benzoic acid]	0.0001 to 1 µM
Cc1noc(C)c1-c1cnc2c(C3=CCOCC3)cn(-c3c(Cl)cc(C(=O)O)cc3Cl)c2c1 [P-0151, 3,5-dichloro-4-(3-(3,6-dihydro-2H-pyran-4-yl)-6-(3,5-dimethylisoxazol-4-yl)-1H-pyrrolo[3,2-b]pyridin-1-yl)benzoic acid]	0.0001 to 1 µM
COc1cc(C(=O)O)cc(OCC2CC2)c1-c1cn([C@@H](C)c2ccccn2)c2ncc(-c3c(C)noc3C)cc12 [P-0152, (S)-3-(cyclopropylmethoxy)-4-(5-(3,5-dimethylisoxazol-4-yl)-1-(1-(pyridin-2-yl)ethyl)-1H-pyrrolo[2,3-b]pyridin-3-yl)-5-methoxybenzoic acid]	0.0001 to 1 µM
COc1cc(C(=O)O)cc(OCC(F)(F)F)c1-c1cn([C@@H](C)c2ccccn2)c2ncc(-c3c(C)noc3C)cc12 [P-0153, (S)-4-(5-(3,5-dimethylisoxazol-4-yl)-1-(1-(pyridin-2-yl)ethyl)-1H-pyrrolo[2,3-b]pyridin-3-yl)-3-methoxy-5-(2,2,2-trifluoroethoxy)benzoic acid]	0.0001 to 1 µM
Cc1noc(C)c1-c1cnc2c(-c3ccc(C(=O)O)cc3)c(C(F)(F)F)n([C@@H](C)c3ccccn3)c2c1 [P-0154, (S)-4-(6-(3,5-dimethylisoxazol-4-yl)-1-(1-(pyridin-2-yl)ethyl)-2-(trifluoromethyl)-1H-pyrrolo[3,2-b]pyridin-3-yl)benzoic acid]	0.0001 to 1 µM
Cc1noc(C)c1-c1cnc2c(-c3ccccc3Cl)cn(C(C)(c3ccccn3)c3ccccn3)c2c1 [P-0155, 4-(3-(2-chloropheny1)-1-(1,1-di(pyridin-2-yl)ethyl)-1H-pyrrolo[3,2-b]pyridin-6-yl)-3,5-dimethylisoxazole]	0.0001 to 1 µM
Cc1noc(C)c1-c1cnc2c(c1)c(-c1ccc(C(=O)O)cc1OC(F)(F)F)cn2C(C1CC1)C1CC1 [P-0156, 4-(1-(dicyclopropylmethyl)-5-(3,5-dimethylisoxazol-4-yl)-1H-pyrrolo[2,3-b]pyridin-3-yl)-3-(trifluoromethoxy)benzoic acid]	0.0001 to 1 µM
Cc1noc(C)c1-c1cnc2c(c1)c(-c1ccc(C(=O)O)cc1OC(F)(F)F)cn2CC1CC(F)(F)C1 [P-0157, 4-(1-((3,3-difluorocyclobutyl)methyl)-5-(3,5-dimethylisoxazol-4-yl)-1H-pyrrolo[2,3-b]pyridin-3-yl)-3-(trifluoromethoxy)benzoic acid]	0.0001 to 1 µM
Cc1noc(C)c1-c1cnc2c(c1)c(-c1ccc(C(=O)O)cc1OC(F)(F)F)cn2-c1ccccn1 [P-0158, 4-(5-(3,5-dimethylisoxazol-4-yl)-1-(pyridin-2-yl)-1H-pyrrolo[2,3-b]pyridin-3-yl)-3-(trifluoromethoxy)benzoic acid]	0.0001 to 1 µM
Cc1noc(C)c1-c1cnc2c(Cc3ccccn3)cn(-c3ccc(C(=O)O)cc3OC(F)(F)F)c2c1 [P-0159, 4-(6-(3,5-dimethylisoxazol-4-yl)-3-(pyridin-2-ylmethyl)-1H-pyrrolo[3,2-b]pyridin-1-yl)-3-(trifluoromethoxy)benzoic acid]	0.0001 to 1 µM
Cc1noc(C)c1-c1cnc2c(-c3cnn(C)c3)c(C(F)(F)F)n([C@@H](C)c3ccccn3)c2c1 [P-0160, (S)-3,5-dimethyl-4-(3-(1-methyl-1H-pyrazol-4-yl)-1-(1-(pyridin-2-yl)ethyl)-2-(trifluoromethyl)-1H-pyrrolo[3,2-b]pyridin-6-yl)isoxazole]	0.0001 to 1 µM
Cc1noc(C)c1-c1cnc2c(-c3cccc(CC(=O)O)c3)c(C(F)(F)F)n([C@@H](C)c3ccccn3)c2c1 [P-0161, (S)-2-(3-(6-(3,5-dimethylisoxazol-4-yl)-1-(1-(pyridin-2-yl)ethyl)-2-(trifluoromethyl)-1H-pyrrolo[3,2-b]pyridin-3-yl)phenyl)acetic acid]	0.0001 to 1 µM
